Patent US20240287164A1, “ANTIBODIES SPECIFIC TO NELL2 AND METHODS OF USE” (BOARD OF REGENTS, THE UNIVERSITY OF TEXAS SYSTEM, priority 2021, published 2024)

Test system: BAF complexes
Assay: Actin in BAF complexes (immunoprecipitation, phalloidin dot blot and phalloidin pull-down)
Format: cell-based
Conditions: A-673 cell nuclear extract
Method: Immunoprecipitation. Immunoprecipitation was performed (Shiio, Y., and Eisenman, R. N. (2003) Histone sumoylation is associated with transcriptional repression. Proc Natl Acad Sci USA). The following antibodies were used: rabbit monoclonal anti-BRG1 (ab110641, Abcam), rabbit monoclonal anti-BAF57 (33360, Cell Signaling Technologies), and mouse monoclonal anti-FLAG M2 (F1804, MilliporeSigma).
Phalloidin dot blot assays. The BAF complexes were immuno-purified from nuclear extract using anti-BRG1 or anti-BAF57, (for endogenous BAF) or anti-FLAG antibody (for FLAG-BRG1-containing BAF) and were spotted onto a nitrocellulose membrane (sample amount normalized by cell number). The membrane was allowed to dry at room temperature for 30 minutes. The membrane was rinsed with TBST (150 mM NaCl, 20 mM Tris, pH7.4, 0.05% Tween-20), blocked with 5% BSA in TBST, and incubated with Biotin-XX Phalloidin (Biotium) either overnight at 4° C. or for two hours at room temperature followed by three washes with TBST. The membrane was incubated with High Sensitivity Streptavidin-HRP (21130, Pierce/Thermo Fisher) for one hour and was washed three times with TBST, followed by detection with ECL reagent.

SMILES: C/C1=C\[C@H](C)C[C@H](C)OC(=O)C[C@H](c2ccc(O)cc2)NC(=O)[C@@H](Cc2c(Br)[nH]c3ccccc23)N(C)C(=O)[C@H](C)NC(=O)[C@@H](C)C1 [Jasplakinolide]
- BRG1 and BRM pulled down by biotin-conjugated phalloidin: more BRG1 and BRM are pulled down
